# Data from patent publication US12215162B2, “BAFF-R targeted chimeric antigen receptor-modified T-cells and uses thereof” (CITY OF HOPE, priority 2016, dated 2025).
# Legend:
# [1] = tested on: SP49-IR; settings: 100 nM ibrutinib; cited from earlier work
# [2] = tested on: SP49; settings: 100 nM ibrutinib; cited from earlier work
# [3] = tested on: JeKo-1-CD20-KO clone 25; experiment: ADCC against rituximab-resistant JeKo-1-CD20-KO; type: cell-based, human; settings: NK cells E:T 20:1
# Method: FIGS. 5A, 5B and 5C are images or graphs showing chimeric BAFF-R antibodies induce ADCC on drug resistant lymphoma models in vitro. FIG. 5A is a scatterplot of FACS analysis showing CD20 binding on JeKo-1 cells following CRISPR/HDR knock-out of CD20 gene. CD20 expression on selected CD20−/−clone #25 compared to WT JeKo-1. ADCC effects measured by chromium-51 release after incubation with C55, C90, or rituximab and effectors NK cells (E:T=20:1). Percentage of cell specific lysis of target cells: rituximab-resistant JeKo-1-CD20-KO (FIG. 5B) and ibrutinib-resistant Z-138 and SP49-IR (FIG. 5C). All data are representative of two or more identical experiments. Data are shown as the mean±s.d. of triplicate samples. *P<0.05 compared with NK cells by two-tailed Student's t-test.
# Cytotoxicity assays. Target cells (L cells, human tumor lines, primary patient samples) were labeled with chromium-51 (51Cr, Perkin Elmer, Waltham, MA) for a 51Cr release assay. Briefly, antibodies and effectors (NK cells or complement serum standard [Sigma Aldrich, St. Louis, MO]), were added to labeled target cells and incubated up to 18 hours. NK cells were enriched from PBMC (NK cell enrichment kit, Stemcell Technologies, Vancouver, Canada). 51Cr released into supernatant was detected with a Wizard Automatic Gamma Counter (Perkin Elmer).
# Generation of JeKo-1-CD20-KO. […]
# [4] = tested on: RS4 acute lymphoblastic lymphoma; experiment: Chromium release ADCC on RS4; type: cell-based, human; settings: NK cells E:T 20:1, 6 hours
# Method: FIGS. 21A and 21B are graphs showing humanized antibodies C90-4 and C90-5 analyzed for their specific cytotoxicity of various lymphoma lines. For FIG. 21A, JeKo-1, Z138, and RS4 were subjected to a chromium release assay with humanized antibodies C90-4 and C90-5. Antibodies were administered to the cell lines at concentrations between 0 to 5 μg/mL and incubated for 6 hours with NK cells at an E:T ratio of 20:1. The cell supernatants were analyzed for their chromium content. For FIG. 21B, LY-10, MEC-2, RL, and Raji lymphoma lines were subjected to a chromium release assay with humanized antibodies C90-4 and C90-5. Antibodies were administered to the cell lines at 5 μg/mL and incubated for 6 hours with NK cells at an E:T ratio of 20:1. The cell supernatants were analyzed for their chromium content.
# The two variants were further assessed in their ability to initiate ADCC. The antibodies were administered in varying concentration to JeKo-1, Z138, and RS4 lines after a period of chromium uptake. The cells and antibodies were incubated with effector NK cells. The supernatant was analyzed 6 hours post treatment (FIG. 21A).
# [5] = tested on: JeKo-1-CD20-KO; experiment: In vivo JeKo-1-CD20-KO tumor model, antibody treatment; set-up: species or system NSG mice; settings: Day 20
# Text: FIGS. 6A and 6B are images and FIG. 6C are graphs showing chimeric antibodies targeting human BAFF-R elicited in vivo therapeutic effects against drug resistant B-cell tumors. Bioluminescence images of mice challenged with luciferase-expressing tumors JeKo-1-CD20-KO cells (FIG. 6A) or ibrutinib-resistant Z-138 cells (FIG. 6B) followed by antibody treatments as in FIG. 4. Control group mice received PBS, NK cells alone, or rituximab on the same schedule. […] Tumor free rate and survival differences between experimental and all control groups were analyzed by log-rank test (** P<0.001). Data are representative of three independent experiments.
# (§1) In vivo studies. For tumor models, stable, luciferase-expressing tumors lines were established for bioluminescent imaging in mouse models. Briefly, a luciferase gene was introduced into tumor lines by a lentivirus gene delivery system (pLenti7.3/V5-DEST Gateway Vector Kit, Life Technologies, Carlsbad, CA). The minimum lethal dose per mouse was determined for each tumor cell line by dose titration. Tumor cells were injected intravenously (IV) and mice were monitored by in vivo bioluminescence imaging for minimum tumor dose to ensure engraftment. Minimum lethal tumor doses were 1×10^6 JeKo-1, 5×10^5 RS4; 11, 5×10^5 JeKo-1-CD20-KO, or 2.5×10^4 Z-138 cells. […]
# [6] = tested on: RS4; 11 (acute lymphoblastic leukemia, ALL); experiment: In vivo RS4;11 ALL tumor model, antibody treatment; set-up: species or system NSG mice; settings: 200 μg antibody + NK-92-176V cells + IL-2 IV
# Text: FIG. 4A is a schematic showing treatment schedule following Day 0 tumor challenge with minimum lethal dose of tumors. Treatments were given by IV tail vein injections. FIGS. 4B and 4C are images showing chimeric antibodies targeting human BAFF-R elicited in vivo therapeutic effects against B-cell tumors. Bioluminescence images of mice challenged with luciferase-expressing tumors: JeKo-1 (MCL) (FIG. 4B) or RS4; 11 (ALL) (FIG. 4C). Experimental groups received treatment of chimeric BAFF-R mAbs (C55 or C90, as indicated). Control group mice received PBS, NK cells alone, or rituximab on the same schedule. Data are representative of three independent experiments.
# as §1
Molecule,viable cells [1],viable cells [2],sensitivity to antibody-mediated cytotoxicity [3],activity (ADCC) [4],tumor burden by bioluminescent imaging [5],tumor growth (bioluminescence) [6]
C=CC(=O)N1CCC[C@@H](n2nc(-c3ccc(Oc4ccccc4)cc3)c3c(N)ncnc32)C1 [ibrutinib],> 90%,~5%,,,,
rituximab [reference compound],,,insensitive,not active,substantial tumor burden,no inhibition
